Assay results taken from article PMC4356558, “Prediction of Chemical Respiratory Sensitizers Using GARD, a Novel In Vitro Assay Based on a Genomic Biomarker Signature” (PLoS ONE, 2015).
In brackets after ≈: the same amount, converted by molar mass.

How the values were obtained:
physchem = conditions: aqueous buffer, kinetic from dmso stock
[1] = test system: GRPS genomic biomarker signature (389 transcripts) in MUTZ-3 cells; test: GARD assay with GARD Respiratory Prediction Signature (GRPS), SVM classification of respiratory sensitizers
Description: The human acute myelomonocytic leukemia cell line MUTZ-3[68, 69] was obtained from Leibniz-Institut DSMZ-Deutsche Sammlung von Mikroorganismen und Zellkulturen (DSMZ, Braunschweig, Germany). Maintenance of cells, chemical stimulation of MUTZ-3 and all subsequent isolation of mRNA and preparation of cDNA were performed as previously described. In short, a phenotypic control of MUTZ-3 was performed using flow cytometry prior to chemical stimulation to ensure cells were in an immature state. The following FITC-conjugated mouse monoclonal antibodies (mAbs) were used: CD1a (DakoCytomation, Glostrup, Denmark), CD34, CD86, HLA-DR, IgG1 (BD Biosciences, Franklin Lakes, NJ). The following PE-conjugated mouse monoclonal antibodies were used: CD14 (DakoCytomation), CD54, CD80, IgG1 (BD Biosciences). Cell viability was determined using Propidium Iodide (BD Biosciences) staining. Samples were run on FACSCanto II instrument. Data was acquired using FACS Diva software (BD Biosciences) and analyzed using FCS Express V4 (De Novo Software, Los Angeles, CA). Gating was performed to exclude cell debris and non-viable cells based on forward- and side-scattering properties and quadrants established using isotype-controls. During chemical exposure, cells were seeded at 200.000 cells/ml in 24-well plates and exposed to chemical compound at the GARD input concentration. Stimulated cells were harvested after 24h incubation at 37 °C, 5% CO2 and RNA was isolated with TRIzol reagent (Life Technologies, Carlsbad, CA) using standardized protocols provided by the manufacturer. In parallel, a control of the maturity state of the cells was performed by flow cytometric analysis of CD86. Preparation of cDNA and hybridization, washing and scanning of the Human Gene 1.0 ST Arrays (Affymetrix, Santa Clara, CA, USA) was performed, according to standardized protocols provided by the manufacturer (Affymetrix).
Gene expression data obtained from the Human Gene 1.0 ST Arrays were normalized using the Single-Channel array normalization (SCAN) algorithm, and potential batch effects between different set of experiments were adjusted using the ComBat empirical bayes method. Normalizations and batch adjustments were performed in R statistical software using the open software Bioconductor v2.14 [73] with the additional software packages SCAN.UPC [70] and sva. Normalized data was imported into Qlucore Omics Explorer 3.0 (Qlucore AB, Lund, Sweden) and visualized using Principal Component Analysis (PCA). Predictors were selected from a one-way ANOVA p-value filtration, using false discovery rate (FDR) to adjust for multiple hypothesis testing, comparing respiratory sensitizers and non-respiratory sensitizers. […] The Backward Elimination algorithm was modified to minimize the Kullback-Leibler error [53] rather than maximizing the Area Under the Receiver Operating Characteristic (AUC ROC), in order to enable signature optimization in cases where the AUC ROC reaches 1.0. […] The script for Backwards Elimination was programmed in R, with the additional package e1071 [78]. The method by which the predictive genomic biomarker signature was established was validated using cross-validation based on Support Vector Machines (SVM), based on a linear kernel, as described previously. In short, the training dataset was randomly divided into a new cross-validation training dataset comprising 70% of the stimulations, and a cross-validation test dataset comprising 30% of the stimulations. In addition, care was taken to maintain the same proportion between respiratory sensitizers and non-respiratory sensitizers as in the complete training dataset. A new predictive genomic biomarker signature was identified from the cross-validation training dataset using one-way ANOVA p-value filtration as described above.

[2] = test system: GPS genomic biomarker signature (200 genes) in MUTZ-3 cells
Description: The GARD assay is based on measurements of transcriptional levels of a genomic biomarker signature (GARD Prediction Signature, or GPS) comprising 200 genes in the myeloid human cell line MUTZ-3 [43–45] using transcriptome-wide DNA microarray technology.
The human acute myelomonocytic leukemia cell line MUTZ-3[68, 69] was obtained from Leibniz-Institut DSMZ-Deutsche Sammlung von Mikroorganismen und Zellkulturen (DSMZ, Braunschweig, Germany). Maintenance of cells, chemical stimulation of MUTZ-3 and all subsequent isolation of mRNA and preparation of cDNA were performed as previously described [41, 42]. In short, a phenotypic control of MUTZ-3 was performed using flow cytometry prior to chemical stimulation to ensure cells were in an immature state. The following FITC-conjugated mouse monoclonal antibodies (mAbs) were used: CD1a (DakoCytomation, Glostrup, Denmark), CD34, CD86, HLA-DR, IgG1 (BD Biosciences, Franklin Lakes, NJ). The following PE-conjugated mouse monoclonal antibodies were used: CD14 (DakoCytomation), CD54, CD80, IgG1 (BD Biosciences). Cell viability was determined using Propidium Iodide (BD Biosciences) staining. Samples were run on FACSCanto II instrument. Data was acquired using FACS Diva software (BD Biosciences) and analyzed using FCS Express V4 (De Novo Software, Los Angeles, CA). […]

Row | Structure (SMILES) | solubility (physchem) [µM] | SVM decision value 1 ([1]; replicate stimulation 1, 24 h at GARD input concentration, independent test dataset, > 0 = respiratory sensitizer) | SVM decision value 2 ([1]; replicate stimulation 2, 24 h at GARD input concentration, independent test dataset, > 0 = respiratory sensitizer) | Classification, Pos if 1 sample > 0 ([1]; respiratory sensitizer if any of replicate stimulations has SVM decision value > 0) | GRPS prediction compared with true identity ([1]; validation using the independent dataset) | Prediction in the GARD assay (skin sensitization) [2]
1 | O=C=NCCCCCCN=C=O [Hexamethylen diisocyanate] | 100 (≈ 16.8 µg/mL) |  |  |  |  | 
2 | C1CNCCN1 [Piperazine] |  | −0.05 | −0.12 | Non-sensitizer | false negatives | accurately predicted as skin sensitizers
3 | Cc1ccc(N=C=O)cc1N=C=O [Toluendiisocyanate] | 40 (≈ 6.97 µg/mL) |  |  |  |  | 
